The results in this text go back to PubChem BioAssay AID256 (DTP/NCI, 2004).

Several values for one entry are separate records, joined by “and”; a condition that tells them apart may be missing. Equal entries are not always repeated. Inconclusive results and toxic doses are left out.

This assay concerns CD2F1 mice, L1210 leukemia ip, survival T/C. As to the kind of experiment: NCI In Vivo Anticancer Drug Screen. Data for tumor model L1210 Leukemia (intraperitoneal) in CD2F1 (CDF1) mice. As to conditions: higher = longer survival. Summed up: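 Compound-dosed mice with transplantable tumor versus matched vehicle controls; endpoint ratio T/C reported.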
Where [1] appears, read: endpoint: mean survival time, dose: 100.0 mg/kg/injection, schedule: Q01DX009 (ip), vehicle: saline.
The mark [2] stands for this setting: endpoint: mean survival time, dose: 200.0 mg/kg/injection, schedule: Q01DX009 (ip), vehicle: saline.
The mark [3] stands for this setting: endpoint: mean survival time, dose: 400.0 mg/kg/injection, schedule: Q01DX009 (ip), vehicle: saline.
The mark [4] stands for this setting: endpoint: mean survival time, dose: 100.0 mg/kg/injection, schedule: Q04DX003 (ip), vehicle: saline with Tween-80.
Setting [5] is: endpoint: mean survival time, dose: 200.0 mg/kg/injection, schedule: Q04DX003 (ip), vehicle: saline with Tween-80.
[6] abbreviates: endpoint: mean survival time, dose: 400.0 mg/kg/injection, schedule: Q04DX003 (ip), vehicle: saline with Tween-80.
[7] abbreviates: endpoint: mean survival time, dose: 25.0 mg/kg/injection, schedule: Q01DX009 (ip), vehicle: water.
Setting [8] is: endpoint: mean survival time, dose: 50.0 mg/kg/injection, schedule: Q01DX009 (ip), vehicle: water.
The mark [9] stands for this setting: endpoint: mean survival time, dose: 100.0 mg/kg/injection, schedule: Q01DX009 (ip), vehicle: water.
The mark [10] stands for this setting: endpoint: mean survival time, dose: 200.0 mg/kg/injection, schedule: Q01DX009 (ip), vehicle: water.
The mark [11] stands for this setting: endpoint: mean survival time, dose: 12.5 mg/kg/injection, schedule: Q01DX009 (ip), vehicle: water.

Regarding `COC(=O)CC(NC(=O)C(CSC(c1ccccc1)(c1ccccc1)c1ccccc1)NC(c1ccccc1)(c1ccccc1)c1ccccc1)C(=O)OC` (stereo not drawn), the T/C (endpoint: mean survival time, dose: 50.0 mg/kg/injection, schedule: Q01DX009 (ip), vehicle: saline) is 95 % of control; the T/C under setting [1] is 92 % of control; the T/C under setting [2] was 89 % of control; the T/C under setting [3] was 91 % of control.
Take `CCCCCC(/C=N\N=C\c1ccco1)=C\c1ccccc1`: the T/C under setting [4] is 93 % of control, the T/C under setting [5] was 93 % of control and the T/C under setting [6] is 96 % of control.
`CC(=O)OC1C(O)C(O)C(OC(C)=O)C(OC(C)=O)C1OC(C)=O` (stereo not drawn): the T/C is 102 % of control under setting [1], 102 % of control under setting [2] and 98 % of control under setting [3].
As to `CC(=O)COc1cccc(C)c1`, the T/C under setting [4] is 100 % of control, the T/C under setting [5] is 103 % of control and the T/C under setting [6] was 93 % of control.
With `Cc1ccc(S(=O)(=O)NC(=O)c2ccccc2)cc1`, the T/C by setting is: (endpoint: mean survival time, dose: 100.0 mg/kg/injection, schedule: Q01DX009 (ip), vehicle: saline with Tween-80) 95 % of control; under setting [4], 98 % of control; (endpoint: mean survival time, dose: 200.0 mg/kg/injection, schedule: Q01DX009 (ip), vehicle: saline with Tween-80) 98 % of control; under setting [5], 102 % of control; (endpoint: mean survival time, dose: 400.0 mg/kg/injection, schedule: Q01DX009 (ip), vehicle: saline with Tween-80) 95 % of control; under setting [6], 101 % of control.
`CC(=O)Oc1cccc2c1C(=O)c1c(OC(C)=O)cccc1C2=O`: the T/C by setting is: under setting [7], 102 % of control; under setting [8], 93 % of control; under setting [9], 96 % of control; under setting [10], 88 % of control.
With `O=C1CC(=O)N(C2OC(CO)C(O)C2O)C(=O)N1` (stereo not drawn), the T/C (endpoint: mean survival time, dose: 12.5 mg/kg/injection, schedule: Q01DX005 (ip), vehicle: water) was 94 % of control; the T/C (endpoint: mean survival time, dose: 25.0 mg/kg/injection, schedule: Q01DX005 (ip), vehicle: water) is 100 % of control; the T/C (endpoint: mean survival time, dose: 50.0 mg/kg/injection, schedule: Q01DX005 (ip), vehicle: water) was 106 % of control; the T/C (endpoint: mean survival time, dose: 100.0 mg/kg/injection, schedule: Q01DX005 (ip), vehicle: water) is 106 % of control; the T/C (endpoint: mean survival time, dose: 200.0 mg/kg/injection, schedule: Q01DX005 (ip), vehicle: water) is 105 % of control; the T/C (endpoint: mean survival time, dose: 400.0 mg/kg/injection, schedule: Q01DX005 (ip), vehicle: water) was 100 % of control.
Consider `COc1cc2c(cc1OC)C1C(=CCC3c4cc(OC)c(OC)cc4CC[N+]31C)C=C2` (stereo not drawn), for which the T/C by setting is: (endpoint: mean survival time, dose: 6.25 mg/kg/injection, schedule: Q04DX003 (ip), vehicle: saline with Tween-80) 102 % of control; (endpoint: mean survival time, dose: 12.5 mg/kg/injection, schedule: Q04DX003 (ip), vehicle: saline with Tween-80) 102 % of control; (endpoint: mean survival time, dose: 25.0 mg/kg/injection, schedule: Q04DX003 (ip), vehicle: saline with Tween-80) 98 % of control.
For `CC(C)C12CCC(=O)C=C1CCCC2O` (stereo not drawn), the T/C runs as follows: (endpoint: mean survival time, dose: 100.0 mg/kg/injection, schedule: Q04DX003 (ip), vehicle: saline sonified) 100 % of control; (endpoint: mean survival time, dose: 200.0 mg/kg/injection, schedule: Q04DX003 (ip), vehicle: saline sonified) 100 % of control; (endpoint: mean survival time, dose: 400.0 mg/kg/injection, schedule: Q04DX003 (ip), vehicle: saline sonified) 97 % of control.
Take `Cc1nc(=O)cnn1C1OC(CO)C(O)C1O` (stereo not drawn): the T/C is 102 % of control (endpoint: mean survival time, dose: 12.5 mg/kg/injection, schedule: Q01DX005 (ip), vehicle: distilled water + Tween-80); 102 % of control (endpoint: mean survival time, dose: 25.0 mg/kg/injection, schedule: Q01DX005 (ip), vehicle: distilled water + Tween-80); 97 % of control (endpoint: mean survival time, dose: 50.0 mg/kg/injection, schedule: Q01DX005 (ip), vehicle: distilled water + Tween-80); 103 % of control (endpoint: mean survival time, dose: 100.0 mg/kg/injection, schedule: Q01DX005 (ip), vehicle: distilled water + Tween-80); 105 % of control (endpoint: mean survival time, dose: 200.0 mg/kg/injection, schedule: Q01DX005 (ip), vehicle: distilled water + Tween-80).
`CCC(C(=O)O)C(=O)O.[NH2-].[NH2-].[Pt+2]`: the T/C is 101 % of control (endpoint: mean survival time, dose: 12.5 mg/kg/injection, schedule: Q04DX003 (ip), vehicle: saline); 87 % of control (endpoint: mean survival time, dose: 200.0 mg/kg/injection, schedule: Q04DX003 (ip), vehicle: saline); 108 % of control (endpoint: median survival time, dose: 3.12 mg/kg/injection, schedule: Q01DX009 (ip), vehicle: saline); 95 % of control (endpoint: median survival time, dose: 100.0 mg/kg/injection, schedule: Q01DX009 (ip), vehicle: saline).
`CCCCC/C=C\C/C=C\CCCCCCCC(=O)OCC1CNP(=O)(N(CCCl)CCCl)O1` (stereo not drawn): the T/C by setting is: (endpoint: mean survival time, dose: 6.25 mg/kg/injection, schedule: Q01DX009 (ip), vehicle: water) 103 % of control; under setting [11], 95 % of control; (endpoint: mean survival time, dose: 23.3 mg/kg/injection, schedule: Q01DX001 (ip), vehicle: DMSO) 101 % of control; under setting [7], 95 % of control; (endpoint: mean survival time, dose: 38.9 mg/kg/injection, schedule: Q01DX001 (ip), vehicle: DMSO) 98 % of control; under setting [8], 97 % of control. Moreover, the T/C is, setting by setting: (endpoint: mean survival time, dose: 64.8 mg/kg/injection, schedule: Q01DX001 (ip), vehicle: DMSO) 98 % of control; under setting [9], 103 % of control; (endpoint: mean survival time, dose: 108.0 mg/kg/injection, schedule: Q01DX001 (ip), vehicle: DMSO) 97 % of control; (endpoint: mean survival time, dose: 180.0 mg/kg/injection, schedule: Q01DX001 (ip), vehicle: DMSO) 98 % of control; under setting [10], 103 % of control; (endpoint: mean survival time, dose: 300.0 mg/kg/injection, schedule: Q01DX001 (ip), vehicle: DMSO) 97 % of control.
For `NNC(=O)CCCCCCCCCCCCCCO`, the T/C is, setting by setting: (endpoint: mean survival time, dose: 200.0 mg/kg/injection, schedule: Q01DX001 (ip), vehicle: saline with Tween-80) 87 % of control; (endpoint: mean survival time, dose: 400.0 mg/kg/injection, schedule: Q01DX001 (ip), vehicle: saline with Tween-80) 90 % of control.
Turning to `CC1NC1(c1ccccc1)n1ccnc1` (stereo not drawn), the T/C under setting [11] is 95 % of control; the T/C under setting [7] was 99 % of control; the T/C under setting [8] was 99 % of control; the T/C under setting [9] was 103 % of control; the T/C under setting [10] was 90 % of control.
Consider `O=C1C=C(Nc2ccc([N+](=O)[O-])cc2Cl)c2ccccc2C1=O`, for which the T/C is 100 % of control (endpoint: mean survival time, dose: 75.0 mg/kg/injection, schedule: Q01DX001 (ip), vehicle: saline); 101 % of control (endpoint: mean survival time, dose: 150.0 mg/kg/injection, schedule: Q01DX001 (ip), vehicle: saline); 112 % of control (endpoint: mean survival time, dose: 300.0 mg/kg/injection, schedule: Q01DX001 (ip), vehicle: saline).
On to `Nc1ncc2c(n1)SCC2`, for which the T/C (endpoint: mean survival time, dose: 200.0 mg/kg/injection, schedule: Q01DX001 (ip), vehicle: saline) is 119 % of control.
In the case of `O=C(O)c1cc(C(=O)O)cc(S(=O)(=O)O)c1.[NH-]C1CCCCC1[NH-].[Pt+2]`, the T/C is 121 % of control and 103 % of control (endpoint: median survival time, dose: 3.12 mg/kg/injection, schedule: Q04DX003 (ip), vehicle: saline); 168 % of control (endpoint: median survival time, dose: 12.5 mg/kg/injection, schedule: Q04DX003 (ip), vehicle: saline); 176 % of control (endpoint: median survival time, dose: 25.0 mg/kg/injection, schedule: Q04DX003 (ip), vehicle: saline); 235 % of control and 350 % of control (endpoint: median survival time, dose: 50.0 mg/kg/injection, schedule: Q04DX003 (ip), vehicle: saline); 188 % of control (endpoint: median survival time, dose: 100.0 mg/kg/injection, schedule: Q04DX003 (ip), vehicle: saline).
In the case of `CC(C)(C)NC(=O)NCCCN1CCOCC1`, the T/C reads like this: under setting [1], 102 % of control; under setting [2], 98 % of control; under setting [3], 91 % of control.
For `CN=NC1(OC(C)=O)CCCC1`, the T/C is 109 % of control (endpoint: mean survival time, dose: 3.12 mg/kg/injection, schedule: Q01DX009 (ip), vehicle: saline); 111 % of control (endpoint: mean survival time, dose: 6.25 mg/kg/injection, schedule: Q01DX009 (ip), vehicle: saline); 118 % of control and 121 % of control (endpoint: mean survival time, dose: 12.5 mg/kg/injection, schedule: Q01DX009 (ip), vehicle: saline); 105 % of control (endpoint: mean survival time, dose: 25.0 mg/kg/injection, schedule: Q01DX009 (ip), vehicle: saline).
Regarding `O=C1C2CC3C1C1(Cl)C(Cl)C4(Cl)C2C3C1(Cl)C4(Cl)Cl` (stereo not drawn), the T/C (endpoint: mean survival time, dose: 9.5 mg/kg/injection, schedule: Q01DX001 (ip), vehicle: other) is 98 % of control; the T/C (endpoint: mean survival time, dose: 19.0 mg/kg/injection, schedule: Q01DX001 (ip), vehicle: other) was 104 % of control; the T/C (endpoint: mean survival time, dose: 38.0 mg/kg/injection, schedule: Q01DX001 (ip), vehicle: other) is 103 % of control; the T/C (endpoint: mean survival time, dose: 75.0 mg/kg/injection, schedule: Q01DX001 (ip), vehicle: other) was 104 % of control.
